{"source": "paper PMC10485887", "about": "“PET Evaluation of the Novel F-18 Labeled Reversible Radioligand [^18F]GEH200449 for Detection of Monoamine Oxidase-B in the Non-Human Primate Brain” (ACS Chemical Neuroscience, 2023)", "test_system": "MAO-B", "assay_type": "in vivo, Macaca fascicularis", "conditions": "for 2-TC parameter estimate k2 / 2-TC parameter estimate k3 / 2-TC parameter estimate k4 / 2-TC parameter estimate K1 / 2-TC parameter estimate VT / VT, 2-TC mean / VT, Logan mean: baseline", "description": "At start of PET data acquisition, a sterile physiological phosphate buffer solution (pH = 7.4) of [^18F]GEH200449 (injected radioactivity, 107–167 MBq) was injected as a bolus into a sural vein. Emission data were acquired in list mode for 123 min. Arterial blood was sampled as previously described[28] using an automated blood sampling system (ABSS) during the first 3 min of each PET measurement. Subsequently, arterial blood samples (0.7–2.5 mL) were manually drawn at 7, 15, 30, 60, 90, and 120 min after injection of [^18F]GEH200449. After centrifugation, 0.15–1.0 mL of plasma was pipetted and plasma radioactivity was measured in a well counter. In addition, samples were taken directly from the ABSS at 0.5, 1, 1.5, 2, 2.5, and 3 min for cross-calibration with the well counter and for the determination of the plasma-to-blood ratio.\nDynamic images were reconstructed as previously described.[30],[31] Regions of interest (ROIs) for the whole brain and selected regions (caudate nucleus, putamen, thalamus, occipital cortex, prefrontal cortex, and cerebellum) were manually delineated on T1-weighted magnetic resonance images (MRIs) acquired as previously described.[21],[27] PET images were coregistered to the MRIs, and time-activity curves were generated by pooling ROIs for each paired anatomical region and applying the pooled ROIs to the coregistered PET images. Delineation of ROIs and image coregistrations were performed using the software PMOD v. 3.6 (PMOD Technologies, Zurich, Switzerland).\nTime curves for regional [^18F]GEH200449 binding at baseline were analyzed by kinetic modeling using 1-TC and 2-TC models,[32] and VT as outcome measures. Akaike information criterion[33] and F statistics were applied to select the preferred model. Regional estimates of VT for [^18F]GEH200449 were also obtained using the Logan linear graphical method[34] with t* fixed at 40 min. The analyses were performed using the kinetic modeling tool in PMOD v. 4.3. Occupancy at [^18F]GEH200449 binding sites was estimated based on regional VT values obtained by the Logan method at baseline and after drug administration according to a graphical procedure described in the literature.[22]", "note": "Read-outs that look alike come from different tables or passages of the source.", "data": [{"smiles": "O=c1ccoc2ccc(OCc3ccc([18F])nc3)cc12", "note": "[[^18F]GEH200449]", "values": [{"measurement": "2-TC parameter estimate k2", "setting": "NHP #4, CER", "result": 0.03, "unit": "min⁻¹"}, {"measurement": "2-TC parameter estimate k3", "setting": "NHP #4, CER", "result": 0.001, "unit": "min⁻¹"}, {"measurement": "2-TC parameter estimate k4", "setting": "NHP #4, CER", "result": 0.000, "unit": "min⁻¹"}, {"measurement": "2-TC parameter estimate K1", "setting": "NHP #4, OC", "result": 0.31, "unit": "mL min-1 cm-3"}, {"measurement": "2-TC parameter estimate k2", "setting": "NHP #4, OC", "result": 0.03, "unit": "min⁻¹"}, {"measurement": "2-TC parameter estimate k3", "setting": "NHP #4, OC", "result": 0.001, "unit": "min⁻¹"}, {"measurement": "2-TC parameter estimate k4", "setting": "NHP #4, OC", "result": 0.000, "unit": "min⁻¹"}, {"measurement": "2-TC parameter estimate K1", "setting": "NHP #4, PFC", "result": 0.37, "unit": "mL min-1 cm-3"}, {"measurement": "2-TC parameter estimate VT", "setting": "NHP #4, PFC", "result": 13.9, "unit": "mL cm-3"}, {"measurement": "2-TC parameter estimate k2", "setting": "NHP #4, PFC", "result": 0.03, "unit": "min⁻¹"}, {"measurement": "2-TC parameter estimate k3", "setting": "NHP #4, PFC", "result": 0.002, "unit": "min⁻¹"}, {"measurement": "2-TC parameter estimate k4", "setting": "NHP #4, PFC", "result": 0.013, "unit": "min⁻¹"}, {"measurement": "2-TC parameter estimate K1", "setting": "NHP #4, PUT", "result": 0.57, "unit": "mL min-1 cm-3"}, {"measurement": "2-TC parameter estimate VT", "setting": "NHP #4, PUT", "result": 17.2, "unit": "mL cm-3"}, {"measurement": "2-TC parameter estimate k2", "setting": "NHP #4, PUT", "result": 0.04, "unit": "min⁻¹"}, {"measurement": "2-TC parameter estimate k3", "setting": "NHP #4, PUT", "result": 0.006, "unit": "min⁻¹"}, {"measurement": "2-TC parameter estimate k4", "setting": "NHP #4, PUT", "result": 0.034, "unit": "min⁻¹"}, {"measurement": "2-TC parameter estimate K1", "setting": "NHP #4, THA", "result": 0.53, "unit": "mL min-1 cm-3"}, {"measurement": "2-TC parameter estimate VT", "setting": "NHP #4, THA", "result": 18.1, "unit": "mL cm-3"}, {"measurement": "2-TC parameter estimate k2", "setting": "NHP #4, THA", "result": 1.24, "unit": "min⁻¹"}, {"measurement": "2-TC parameter estimate k3", "setting": "NHP #4, THA", "result": 4.043, "unit": "min⁻¹"}, {"measurement": "2-TC parameter estimate k4", "setting": "NHP #4, THA", "result": 0.098, "unit": "min⁻¹"}, {"measurement": "2-TC parameter estimate K1", "setting": "NHP #4, WB", "result": 0.34, "unit": "mL min-1 cm-3"}, {"measurement": "2-TC parameter estimate VT", "setting": "NHP #4, WB", "result": 13.1, "unit": "mL cm-3"}, {"measurement": "2-TC parameter estimate k2", "setting": "NHP #4, WB", "result": 0.03, "unit": "min⁻¹"}, {"measurement": "2-TC parameter estimate k3", "setting": "NHP #4, WB", "result": 0.003, "unit": "min⁻¹"}, {"measurement": "2-TC parameter estimate k4", "setting": "NHP #4, WB", "result": 0.016, "unit": "min⁻¹"}, {"measurement": "2-TC parameter estimate K1", "setting": "NHP #5, CAU", "result": 0.93, "unit": "mL min-1 cm-3"}, {"measurement": "2-TC parameter estimate VT", "setting": "NHP #5, CAU", "result": 34.1, "unit": "mL cm-3"}, {"measurement": "2-TC parameter estimate k2", "setting": "NHP #5, CAU", "result": 0.05, "unit": "min⁻¹"}, {"measurement": "2-TC parameter estimate k3", "setting": "NHP #5, CAU", "result": 0.004, "unit": "min⁻¹"}, {"measurement": "2-TC parameter estimate k4", "setting": "NHP #5, CAU", "result": 0.004, "unit": "min⁻¹"}, {"measurement": "2-TC parameter estimate K1", "setting": "NHP #5, CER", "result": 0.51, "unit": "mL min-1 cm-3"}, {"measurement": "2-TC parameter estimate VT", "setting": "NHP #5, CER", "result": 16.0, "unit": "mL cm-3"}, {"measurement": "2-TC parameter estimate k2", "setting": "NHP #5, CER", "result": 0.05, "unit": "min⁻¹"}, {"measurement": "2-TC parameter estimate k3", "setting": "NHP #5, CER", "result": 0.006, "unit": "min⁻¹"}, {"measurement": "2-TC parameter estimate k4", "setting": "NHP #5, CER", "result": 0.011, "unit": "min⁻¹"}, {"measurement": "2-TC parameter estimate K1", "setting": "NHP #5, OC", "result": 0.37, "unit": "mL min-1 cm-3"}, {"measurement": "2-TC parameter estimate k2", "setting": "NHP #5, OC", "result": 0.04, "unit": "min⁻¹"}, {"measurement": "2-TC parameter estimate k3", "setting": "NHP #5, OC", "result": 0.002, "unit": "min⁻¹"}, {"measurement": "2-TC parameter estimate k4", "setting": "NHP #5, OC", "result": 0.000, "unit": "min⁻¹"}, {"measurement": "2-TC parameter estimate K1", "setting": "NHP #5, PFC", "result": 0.61, "unit": "mL min-1 cm-3"}, {"measurement": "2-TC parameter estimate VT", "setting": "NHP #5, PFC", "result": 20.4, "unit": "mL cm-3"}, {"measurement": "2-TC parameter estimate k2", "setting": "NHP #5, PFC", "result": 0.05, "unit": "min⁻¹"}, {"measurement": "2-TC parameter estimate k3", "setting": "NHP #5, PFC", "result": 0.004, "unit": "min⁻¹"}, {"measurement": "2-TC parameter estimate k4", "setting": "NHP #5, PFC", "result": 0.006, "unit": "min⁻¹"}, {"measurement": "2-TC parameter estimate K1", "setting": "NHP #5, PUT", "result": 0.86, "unit": "mL min-1 cm-3"}, {"measurement": "2-TC parameter estimate VT", "setting": "NHP #5, PUT", "result": 21.1, "unit": "mL cm-3"}, {"measurement": "2-TC parameter estimate k2", "setting": "NHP #5, PUT", "result": 0.06, "unit": "min⁻¹"}, {"measurement": "2-TC parameter estimate k3", "setting": "NHP #5, PUT", "result": 0.007, "unit": "min⁻¹"}, {"measurement": "2-TC parameter estimate k4", "setting": "NHP #5, PUT", "result": 0.012, "unit": "min⁻¹"}, {"measurement": "2-TC parameter estimate K1", "setting": "NHP #5, THA", "result": 0.64, "unit": "mL min-1 cm-3"}, {"measurement": "2-TC parameter estimate VT", "setting": "NHP #5, THA", "result": 27.7, "unit": "mL cm-3"}, {"measurement": "2-TC parameter estimate k2", "setting": "NHP #5, THA", "result": 0.04, "unit": "min⁻¹"}, {"measurement": "2-TC parameter estimate k3", "setting": "NHP #5, THA", "result": 0.004, "unit": "min⁻¹"}, {"measurement": "2-TC parameter estimate k4", "setting": "NHP #5, THA", "result": 0.005, "unit": "min⁻¹"}, {"measurement": "2-TC parameter estimate K1", "setting": "NHP #5, WB", "result": 0.50, "unit": "mL min-1 cm-3"}, {"measurement": "2-TC parameter estimate VT", "setting": "NHP #5, WB", "result": 17.3, "unit": "mL cm-3"}, {"measurement": "2-TC parameter estimate k2", "setting": "NHP #5, WB", "result": 0.05, "unit": "min⁻¹"}, {"measurement": "2-TC parameter estimate k3", "setting": "NHP #5, WB", "result": 0.005, "unit": "min⁻¹"}, {"measurement": "2-TC parameter estimate k4", "setting": "NHP #5, WB", "result": 0.008, "unit": "min⁻¹"}, {"measurement": "pattern of regional radioactivity (binding)", "setting": "baseline PET images and time curves", "result": "high binding in the striatum and thalamus, whereas the binding was lower in the cortex and cerebellum"}, {"measurement": "VT, 2-TC mean", "setting": "caudate nucleus, n = 4", "result": 22.0, "unit": "mL cm^–3"}, {"measurement": "VT, Logan mean", "setting": "caudate nucleus, n = 4", "result": 18.9, "unit": "mL cm^–3"}, {"measurement": "VT, 2-TC mean", "setting": "cerebellum, n = 3", "result": "13.6^** mL cm^–3"}, {"measurement": "VT, Logan mean", "setting": "cerebellum, n = 4", "result": 12.6, "unit": "mL cm^–3"}, {"measurement": "VT, 2-TC mean", "setting": "occipital cortex, n = 2", "result": "11.0^* mL cm^–3"}, {"measurement": "VT, Logan mean", "setting": "occipital cortex, n = 4", "result": 11.0, "unit": "mL cm^–3"}, {"measurement": "VT, 2-TC mean", "setting": "prefrontal cortex, n = 4", "result": 14.7, "unit": "mL cm^–3"}, {"measurement": "VT, Logan mean", "setting": "prefrontal cortex, n = 4", "result": 13.1, "unit": "mL cm^–3"}, {"measurement": "VT, 2-TC mean", "setting": "putamen, n = 4", "result": 17.3, "unit": "mL cm^–3"}, {"measurement": "VT, Logan mean", "setting": "putamen, n = 4", "result": 16.5, "unit": "mL cm^–3"}, {"measurement": "VT, 2-TC mean", "setting": "thalamus, n = 4", "result": 19.8, "unit": "mL cm^–3"}, {"measurement": "VT, Logan mean", "setting": "thalamus, n = 4", "result": 17.3, "unit": "mL cm^–3"}, {"measurement": "VT, 2-TC mean", "setting": "whole brain, n = 4", "result": 13.5, "unit": "mL cm^–3"}, {"measurement": "VT, Logan mean", "setting": "whole brain, n = 4", "result": 12.4, "unit": "mL cm^–3"}]}]}
